According to paper PMC7966678, “GMP-compliant fully automated radiosynthesis of [^18F]FEPPA for PET/MRI imaging of regional brain TSPO expression” (EJNMMI Research, 2021):

Assays:
[1] = set-up: method as in PMID 29875332; details: cited from earlier work
[2] = biological target: T1, TSPO (Mus musculus, UniProt P50637); assay: In vivo dynamic PET/MR whole-body biodistribution of [^18F]FEPPA in control and LPS-injected mice; set-up: species or system C57BL/6 mice
T1 construct: from tissue; host or cells: living C57BL6 mice: brain regions, heart, lung, liver, spleen, kidney, blood (in vivo PET/MR)
Description: (§1) The mice in the LPS group (6 mice for each dose) were intraperitoneally injected with a single dose of 0.625, 1.25, 2.5 or 5 mg/kg LPS (Escherichia coli, strain O111:B4; Calbiochem, San Diego, CA, USA) to induce systemic inflammation. The control group were intraperitoneally injected with 0.9% NaCl. In vivo or in vitro assessments were performed 24 h after administration of LPS.
Before PET/MR imaging acquisition, the mice were anesthetized by passive inhalation of a mixture of isoflurane and oxygen (5% isoflurane for induction and 2% for maintenance). A fiber-optic temperature probe was inserted into the rectum to monitor the core temperature of the mice, then each animal was gently positioned in the MR cradle and the MRI coil was secured around the head. A warm water blanket was positioned to maintain the core temperature of the animals, then the mice were positioned inside the scanner. The depth of anesthesia, pulse and respiration were monitored constantly during the imaging procedure; in the unlikely event that an animal regained consciousness, the scanning was immediately stopped and the animal was removed from the scanner, humanely euthanized and eliminated from the study.
(§2) The animals (n = 6 per dose of LPS; n = 6 controls) were injected with [^18F]FEPPA (10.09 ± 1.38 MBq; […]) via the tail vein. Dynamic PET images were obtained using a 7 T PETMR Inline (Bruker, Rheinstetten, Germany) for 30 min with the energy window set to 350–650 keV. Images were acquired every 1 s for 10 images, 10 s for five images, 60 s for nine images, 300 s for two images and 600 s for 1 image; a total of 27 frames were collected.
(§3) The PET images were reconstructed through three-dimensional ordered-subset expectation maximization (3D-OSEM). The regional radioactivity concentration (KBq/cc) of [^18F]FEPPA was estimated based on the mean pixel values within the volumes of interest (VOI) corresponding to MR images of various regions of the brain. Image data were decay-corrected to the injection time. The radioactivity concentration (KBq/cc) of the VOI was converted to the standard uptake value (SUV), and the mean and standard error of the mean (SEM) radiotracer accumulation values were calculated for various tissues. PET/MR data were analyzed using PMOD 4.0 software (PMOD Technologies Ltd., Zurich, Switzerland).

[3] = Stability of final product (radiochemical purity by analytical HPLC); type: physicochemical; details: 6 h after the end of synthesis; manual and automated synthesis
Description: Radiochemical and chemical purity, stability and molar activity were assessed by analytical HPLC. The molar activity of the radiotracer was quantified by measuring the radioactivity injected and deriving the concentration of FEPPA in the sample by UV detection.
The identity of the labeled compound [^18F]FEPPA was confirmed by co-injection with a non-radioactive FEPPA standard. The concentration of FEPPA in the radioactive sample was obtained from the UV-peak area ratio for the radioactive product and the standard solution. Analytical HPLC was performed on a Nova-pak C18 column (300 × 3.9 mm, 4 μm) in 50 mM (NH4)H2PO4:CH3CN (1:1) at 1 mL/min using a Waters Corporation 2695 pump with a multi-wavelength 2489 UV Detector (Waters Corporation) in series with a Bioscan FC-4000 dual BGO coincidence detector (Bioscan, Inc., Washington, DC, USA). A delay time of 12 s was observed between the two detectors.

[4] = biological target: T1, TSPO; assay: In vivo PET/MR brain region-specific uptake and pharmacokinetics (SUV, VT by Logan graphical analysis, AUC); set-up: species or system C57BL/6 mice; details: for Brain [^18F]FEPPA uptake vs LPS dose: 24 h after injection
Description: as §1, §2
T1 and T2 MRI were performed to determine the anatomical structure of the brain. The MRI sequences included 0.5-mm thickness coronal T2 Turbo RARE high-resolution images (TR = 3455 ms, TE = 36 ms, matrix = 256 × 256, average = 8, slice number = 30).
as §3
The Logan graphical method for reversible uptake was used to assess whether [^18F]FEPPA PET/MRI [30] could be used to detect differences in the expression of TSPO. Cardiac blood was used as the reference tissue. The slope of the linear portion of the Logan plot represents the total distribution (VT). If metabolite-corrected plasma TACs are not available, a reference region TAC, Cp(t), can be used instead of the plasma TAC. Then, the slope of the linear portion of the plot can be calculated using (Eq. 1)1 ∫0tCTissueτdr/CTissuet=K∫0tCpτdr/CTissuet+V

[5] = test system: TSPO; set-up: method as in PMID 18355686, PMID 24939192; details: higher affinity than [^11C]PK-11195; cited from earlier work

CC(=O)N(Cc1ccccc1OCC[18F])c1cnccc1Oc1ccccc1 [[^18F]FEPPA, [^18F]-N-(2-(2-fluoroethoxy)benzyl)-N-(4-phenoxypyridin-3-yl) acetamide]
Parent fraction of unmetabolized [^18F]FEPPA in the brain (intact form) ([1]; 30 min after injection): approximately 95% | Metabolite in plasma ([1]; 30 min imaging time-window): 60% | Increase of [^18F]FEPPA in heart, LPS-induced group vs control ([2]; LPS 5 mg/kg, 24 h): ~ 3 folds | Increase of [^18F]FEPPA in lung, LPS-induced group vs control ([2]; LPS 5 mg/kg, 24 h): ~ 3 folds | Accumulated radioactivity (SUV), Blood ([2]; LPS (5 mg/kg i.p., 24 h) mice): 1.29 ± 0.128 SUV | Accumulated radioactivity (SUV), Heart muscle ([2]; LPS (5 mg/kg i.p., 24 h) mice): 3.60 ± 0.722 SUV | Accumulated radioactivity (SUV), Kidney ([2]; LPS (5 mg/kg i.p., 24 h) mice): 5.86 ± 0.504 SUV | Accumulated radioactivity (SUV), Liver ([2]; LPS (5 mg/kg i.p., 24 h) mice): 1.60 ± 0.097 SUV | Accumulated radioactivity (SUV), Spleen ([2]; LPS (5 mg/kg i.p., 24 h) mice): 0.96 ± 0.443 SUV | Accumulated radioactivity (SUV), Whole brain ([2]; LPS (5 mg/kg i.p., 24 h) mice): 0.76 ± 0.014 SUV | Time of peak radioactivity in heart muscle ([2]; after injection): ≤ 3 min | Time to steady state in heart muscle and lungs ([2]; after injection of [^18F]FEPPA): 10 min | Blood clearance kinetics ([2]; control group, after i.v. injection): biexponential | Accumulated radioactivity (SUV), Heart muscle ([2]; control mice): 1.24 ± 0.06 SUV | Accumulated radioactivity (SUV), Kidney ([2]; control mice): 4.80 ± 0.57 SUV | Accumulated radioactivity (SUV), Liver ([2]; control mice): 1.48 ± 0.36 SUV | Accumulated radioactivity (SUV), Lung ([2]; control mice): 1.38 ± 0.08 SUV | Accumulated radioactivity (SUV), Spleen ([2]; control mice): 1.16 ± 0.32 SUV | Accumulated radioactivity (SUV), Whole brain ([2]; control mice): 0.48 ± 0.05 SUV | Accumulated radioactivity (SUV), Blood ([2]; control mice, 30 min post-injection i.v.): 1.29 ± 0.03 SUV | Time of peak accumulation in the lungs ([2]; post-injection): 1 to 2 min | Radiochemical purity (stability of final product) [3]: more than 99% | Brain [^18F]FEPPA uptake vs LPS dose ([4]; 5 mg/kg LPS): significantly higher uptake | AUC (SUV·min, 0–30 min) ratio in brain, LPS vs control ([4]; LPS 5 mg/kg, 24 h): 1.58 ± 0.09 fold | VT (Logan graphical analysis) in brain, LPS vs control ([4]; LPS 5 mg/kg, 24 h, average of brain regions, cardiac blood as reference): 1.25 ± 0.12 fold | Average SUV ratio for all brain regions, LPS vs control ([4]; LPS 5 mg/kg, 24 h, brain): 1.61 ± 0.1 fold | Brain [^18F]FEPPA uptake vs LPS dose ([4]; LPS dose ≦ 2.5 mg/kg): no significant difference | Time of peak radioactivity in brain regions ([4]; control animals, followed by rapid washout): ≤ 3 min | Affinity relative to [^11C]PK-11195 [5]: 18 fold
